Experimental data from ChEMBL document CHEMBL4421733, “Inhibitors of eya2” (2012).
Calls of active or inactive are those of the source. The rule behind the calls is not given here.

How the values were obtained:
[1] = Binding affinity to Mg2+ ion in acetonitrile assessed as induction of shift in the maximum absorbance wavelength by UV spectroscopy
[2] = Binding affinity to Mg2+ ion at 25 uM in aqueous buffers by UV spectroscopy
[3] = Binding affinity to Na+ ion in acetonitrile at 12.5 uM assessed as induction of shift in the maximum absorbance wavelength by UV spectroscopy
[4] = Binding affinity to Mg2+ ion assessed as induction of chemical shift at 5 mM in presence of in presence of 25 mM magnesium 1H-NMR spectroscopy
[5] = Binding affinity to Na+ ion assessed as induction of chemical shift at 5 mM by 1H-NMR spectroscopy
[6] = target: T1, Protein phosphatase EYA2 (Homo sapiens) (UniProt O00167); assay: Inhibition of GST-fused human Eya2 ED (253 to 538 residues) expressed in Escherichia coli at […] pre-incubated for 10 mins followed by OMFP substrate addition and further incubated for 30 mins by fluorescence based assay
T1 sequence (whole entry): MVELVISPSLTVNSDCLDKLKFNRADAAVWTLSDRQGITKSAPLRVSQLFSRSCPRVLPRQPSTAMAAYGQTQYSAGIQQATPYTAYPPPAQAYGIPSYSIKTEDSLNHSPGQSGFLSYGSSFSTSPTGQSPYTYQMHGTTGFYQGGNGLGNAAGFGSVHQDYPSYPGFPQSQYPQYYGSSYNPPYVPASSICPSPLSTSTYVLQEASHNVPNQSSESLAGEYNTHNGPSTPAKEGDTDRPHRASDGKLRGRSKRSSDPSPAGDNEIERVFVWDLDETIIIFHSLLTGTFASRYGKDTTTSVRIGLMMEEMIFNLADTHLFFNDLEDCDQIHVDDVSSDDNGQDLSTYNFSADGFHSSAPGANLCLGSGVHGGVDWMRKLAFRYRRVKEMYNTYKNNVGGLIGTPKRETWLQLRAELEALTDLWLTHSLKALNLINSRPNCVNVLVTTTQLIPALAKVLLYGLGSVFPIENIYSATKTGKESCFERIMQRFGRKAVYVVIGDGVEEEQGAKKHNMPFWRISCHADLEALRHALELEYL

[7] = Binding affinity to Mg2+ ion in acetonitrile assessed as induction of shift in the maximum absorbance wavelength at 25 uM by UV spectroscopy

O=C(N/N=C/c1ccc(Sc2ccccn2)o1)c1cccc(F)c1
Activity [1]: Dose-dependent effect
Activity [2]: inactive
Activity [3]: inactive
Activity [4]: -0.6 ppm
Activity [5]: inactive

N[C@@H](Cc1ccccc1)C(=O)O
inhibition [6]: inactive

c1cnc2c(c1)ccc1cccnc12
inhibition [6]: inactive

Cc1ccccc1C(=O)N/N=C/c1ccc(Sc2ccccn2)o1
Activity [7]: Active

C=C1[C@@H](O)[C@@H]2O[C@@]3(CC[C@H](/C=C/[C@@H](C)[C@@H]4CC(C)=C[C@@]5(O[C@H](C[C@@](C)(O)C(=O)O)CC[C@H]5O)O4)O3)CC[C@H]2O[C@@H]1[C@@H](O)C[C@H](C)[C@H]1O[C@@]2(CCCCO2)CC[C@H]1C
inhibition [6]: inactive
